The structures appear in SMILES notation.

Data on one compound can be found in patent US20150231242A1, “COMBINATION OF CD37 ANTIBODIES WITH BENDAMUSTINE” (Boehringer Ingelheim International GmbH, priority 2012, published 2015).

A short description of data set [1]: Body weight / tolerability in DOHH2 tumor-bearing mice (Example 3). The settings on record: for tolerability in words: body weight as indicator of tolerability.
The subject of data set [2] is Raji Burkitt lymphoma cells. The experiment in a line: Apoptosis assay (Annexin V/PI staining, FACS) on Raji cells. It counts as cell-based, human. The note with it: 48 h, A2 10 μg/ml, Annexin V positive cells, mean of three experiments.
The test system of data set [3] is Ramos Burkitt lymphoma cells. The data set is described as follows: Apoptosis assay (Annexin V/PI staining, FACS) on Ramos cells. It counts as cell-based, human. The note with it: 48 h, A2 10 μg/ml, Annexin V positive cells, mean of three experiments.
Data set [4] relates to DoHH2 tumor cells. The data set is described as follows: DoHH2 human xenograft tumor model (Example 2). The note with it: A2 10 mg/kg twice weekly, bendamustine 10 mg/kg twice weekly ip; present-tense example. It is filed as in vivo, CB-17 SCID mice.
In data set [5] the test system is DOHH2 tumors (human follicular lymphoma). The data set is described as follows: Efficacy in subcutaneous DOHH2 human follicular lymphoma xenograft (Example 3). It is filed as in vivo, C.B-17 scid mice. The note with it: day 16; for anti-tumor effect in words: DOHH2 tumors. A general note: In xenograft studies the graft and the host belong to different species.

Take `Cn1c(CCCC(=O)O)nc2cc(N(CCCl)CCCl)ccc21` [Bendamustine, 4-[5-[Bis(2-chloroethyl)amino]-1-methylbenzimidazol-2-yl]butanoic acid]: the tolerability in words entry in data set [1] is reported as “resulted in weight loss”; in data set [1] (listed as bendamustine), “moderately tolerated”. The “body weight loss in median” value in data set [1] (within the first week of treatment) is recorded as “up to 7.9%”. Also, the “% apoptotic cells” value in data set [2] (bendamustine 200 μM column) stood at 10%; in data set [2] (bendamustine 400 μM column), 13%; in data set [3] (bendamustine 100 μM column) it was 19%; in data set [3] (bendamustine 400 μM column) it was 35%. For the same compound, the “anti-tumor effect in words” value in data set [4] is given as “significant anti-tumor effect”; in data set [5], “significant inhibition of tumor growth”; in data set [5] (listed as bendamustine) it was “growth inhibited”. For the same compound, the “CR (complete tumor regression)” value in data set [5] (7 mice per group) is recorded as 0 x/7. The “PR (partial tumor regression)” value in data set [5] (7 mice per group) worked out at 0 x/7. The TGI in data set [5] (median, antibody A2 10 mg/kg i.p. twice weekly, bendamustine 20 mg/kg i.p. two injections) was found to be 57%.

By TGI is commonly meant how far tumour growth fell short of that in controls. Low values mean little slowing of growth, high ones much slowing of growth.
